Assay results reported in patent US20110082130A1 (LIGAND PHARMACEUTICALS, INC., priority 2006, published 2011).

biological target: T1, chimeric human H3 receptor (Homo sapiens, UniProt Q9Y5N1); experiment: Chimeric human H3 receptor GTP binding assay (agonist-stimulated GTP-gamma35S binding, Example 7); assay type: biochemical; settings: Table I; P2 membranes of Sf9 cells, 1 μM histamine as agonist, Ki from IC50 by Cheng-Prusoff
T1 construct: made in house; host or cells: Sf9 insect cells (baculovirus); P2 membrane preparation
In short: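 Sf9 membranes co-expressing chimeric human H3 receptor and heterotrimeric G-protein, 35 μg/tube, in pH 7.4 Tris buffer with 10 μM GDP. Test compounds (10^−10–10^−6 M) competed against 1 μM histamine, […] GTP-gamma35S, 60 min at room temperature. Filter-bound radioactivity counted; IC50 converted to Ki by Cheng-Prusoff. Agonism/inverse agonism tested without histamine (EC50).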

T1 sequence (Q9Y5N1 with tags, fused parts or gaps): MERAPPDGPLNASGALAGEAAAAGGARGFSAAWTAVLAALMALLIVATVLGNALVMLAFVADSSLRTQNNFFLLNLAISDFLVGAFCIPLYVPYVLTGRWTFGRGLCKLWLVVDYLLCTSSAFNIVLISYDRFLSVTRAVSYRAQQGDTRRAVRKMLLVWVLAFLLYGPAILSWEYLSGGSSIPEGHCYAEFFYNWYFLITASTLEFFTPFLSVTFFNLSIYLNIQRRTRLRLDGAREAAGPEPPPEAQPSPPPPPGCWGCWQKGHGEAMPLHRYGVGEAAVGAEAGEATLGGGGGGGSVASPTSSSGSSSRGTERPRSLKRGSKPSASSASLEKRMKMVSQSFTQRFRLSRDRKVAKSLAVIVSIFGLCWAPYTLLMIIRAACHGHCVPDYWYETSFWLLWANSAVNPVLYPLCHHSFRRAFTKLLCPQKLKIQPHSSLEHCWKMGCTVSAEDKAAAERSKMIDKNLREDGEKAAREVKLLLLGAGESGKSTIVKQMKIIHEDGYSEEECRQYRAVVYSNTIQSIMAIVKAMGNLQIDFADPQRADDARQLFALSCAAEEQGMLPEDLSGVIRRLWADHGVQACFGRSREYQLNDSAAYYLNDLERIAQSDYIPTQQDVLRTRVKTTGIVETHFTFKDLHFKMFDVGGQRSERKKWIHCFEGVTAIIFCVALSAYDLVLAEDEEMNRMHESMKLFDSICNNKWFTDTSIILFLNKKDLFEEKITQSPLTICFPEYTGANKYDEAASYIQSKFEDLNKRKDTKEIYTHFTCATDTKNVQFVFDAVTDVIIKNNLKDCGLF

Ki, < 1 µM:
CNC(=O)c1ccc2c(c1)CN(CC(=O)N1CCN(C3CCC3)CC1)CC2 [Compound 66, 2-[2-(4-cyclobutylpiperazin-1-yl)-2-oxoethyl]-N-methyl-1,2,3,4-tetrahydroisoquinoline-7-carboxamide]
CC(=O)c1ccc(-c2ncc3c(n2)CCN(CC(=O)N2CCN(C4CCC4)CC2)C3)cc1 [Compound 71, 1-(4-{6-[2-(4-cyclobutylpiperazin-1-yl)-2-oxoethyl]-5,6,7,8-tetrahydropyrido[4,3-d]pyrimidin-2-yl}phenyl)ethanone]
O=C(CN1CCn2ccnc2C1)N1CCN(C2CCC2)CC1 [Compound 83, 7-[2-(4-cyclobutylpiperazin-1-yl)-2-oxoethyl]-5,6,7,8-tetrahydroimidazo[1,2-a]pyrazine]
COc1ccc2c(c1)CCN(CC(=O)N1CCN(C3CCC3)CC1)C2c1ccccc1Cl (stereo not drawn) [Compound 62, 1-(2-chlorophenyl)-2-[2-(4-cyclobutylpiperazin-1-yl)-2-oxoethyl]-6-methoxy-1,2,3,4-tetrahydroisoquinoline]
COc1ncnc2c1CCN(CC(=O)N1CCN(C3CCC3)CC1)CC2 [Compound 78, 7-[2-(4-cyclobutylpiperazin-1-yl)-2-oxoethyl]-4-methoxy-6,7,8,9-tetrahydro-5H-tetrahydro-5H-pyrimido[4,5-d]azepine]

same assay, conditions: Table II "Ki", symbol *; assay of Example 7

Ki, < 1 µM:
O=C(CN1CCc2cc(-c3cccc4[nH]ccc34)ccc2C1)N1CCN(C2CCC2)CC1 [Compound 639, 2-[2-(4-cyclobutylpiperazin-1-yl)-2-oxoethyl]-6-(1H-indol-4-yl)-1,2,3,4-tetrahydroisoquinoline]
COc1cc(-c2ccc3c(c2)CCN(CC(=O)N2CCN(C4CCC4)CC2)C3)cc(OC)c1OC [Compound 516, 2-[2-(4-cyclobutylpiperazin-1-yl)-2-oxoethyl]-6-(3,4,5-trimethoxyphenyl)-1,2,3,4-tetrahydroisoquinoline]
CCC(C)Nc1ccc2c(n1)CCN(CC(=O)N1CCN(C3CCC3)CC1)C2 (stereo not drawn) [Compound 655, N-sec-butyl-6-[2-(4-cyclobutylpiperazin-1-yl)-2-oxoethyl]-5,6,7,8-tetrahydro-1,6-naphthyridin-2-amine]
COC1CCN(c2ccc3c(n2)CCN(CC(=O)N2CCN(C4CCC4)CC2)C3)CC1 [Compound 681, 6-[2-(4-cyclobutylpiperazin-1-yl)-2-oxoethyl]-2-(4-methoxypiperidin-1-yl)-5,6,7,8-tetrahydro-1,6-naphthyridine]
COc1ccc(-c2ccc3c(c2)CCN(CC(=O)N2CCN(C4CCCC4)CC2)C3)cc1OC [Compound 525, 2-[2-(4-cyclopentylpiperazin-1-yl)-2-oxoethyl]-6-(3.4-dimethoxyphenyl)-1,2,3,4-tetrahydroisoquinoline]
CN(C)CCc1ccccc1-c1ccc2c(c1)CCN(CC(=O)N1CCN(C3CCC3)CC1)C2 [Compound 643, 2-(2-{2-[2-(4-cyclobutylpiperazin-1-yl)-2-oxoethyl]-1,2,3,4-tetrahydroisoquinolin-6-yl}phenyl)-N,N-dimethylethanamine]
CCN(CC)c1ccc(-c2ccc3c(c2)CCN(CC(=O)N2CCN(C4CCC4)CC2)C3)cc1 [Compound 625, 4-{2-[2-(4-cyclobutylpiperazin-1-yl)-2-oxoethyl]-1,2,3,4-tetrahydroisoquinolin-6-yl}-N,N-diethylaniline]
CN(c1ccc2c(n1)CCN(CC(=O)N1CCN(C3CCC3)CC1)C2)C1CCCCC1 [Compound 677, 6-[2-(4-cyclobutylpiperazin-1-yl)-2-oxoethyl]-N-cyclohexyl-N-methyl-5,6,7,8-tetrahydro-1,6-naphthyridin-2-amine]

same assay, conditions: Table II; "*" = Ki in assay of Example 7 less than 1 micromolar

Ki, < 1 µM:
CC1CCC[C@H]2CN(C(=O)CN3CCc4nc(-c5cncnc5)sc4C3)CCN12 (stereo in doubt) [Compound 150, 6-methyl-2-[(2-pyrimidin-5-yl-6,7-dihydro[1,3]thiazolo [5,4-c]pyridin-5(4H)-yl)acetyl]octahydro-2H-pyrido[1,2-a]pyrazine]
N#Cc1ccc(-n2ncc3c2CCN(CC(=O)N2CCN(C4CCC4)CC2)C3)nn1 [Compound 215, 6-{5-[2-(4-cyclobutylpiperazin-1-yl)-2-oxoethyl]-4,5,6,7-tetrahydro-1H-pyrazolo[4,3-c]pyridin-1-yl}pyridazine-3-carbonitrile]
O=C(CN1CCc2nn(-c3cncnc3)cc2C1)N1CCN(C2CCC2)CC1 [Compound 252, 5-[2-(4-cyclobutylpiperazin-1-yl)-2-oxoethyl]-2-pyrimidin-5-yl-4,5,6,7-tetrahydro-2H-pyrazolo[4,3-c]pyridine]
CNC(=O)c1ccc2c(c1)CCN(CC(=O)N1CCN(C3CCC3)CC1)C2 [Compound 85, 2-[2-(4-cyclobutylpiperazin-1-yl)-2-oxoethyl]-N-methyl-1,2,3,4-tetrahydroisoquinoline-6-carboxamide]
CS(=O)(=O)c1cccc(-c2ccc3c(c2)CCN(CC(=O)N2CCN(C4CCC4)CC2)C3)c1 [Compound 84, 2-[2-(4-cyclobutylpiperazin-1-yl)-2-oxoethyl]-6-[3-(methylsulfonyl)phenyl]-1,2,3,4-tetrahydroisoquinoline]
CC(=O)c1ccc2c(c1)CCN(CC(=O)N1CCN3C(C)CCCC3C1)C2 (stereo not drawn) [Compound 142, 1-{2-[2-(6-methyloctahydro-2H-pyrido[1,2-a]pyrazin-2-yl)-2-oxoethyl]-1,2,3,4-tetrahydroisoquinolin-6-yl}ethanone]
O=C(CN1CCc2nc(N3CCCCC3)ccc2C1)N1CCN(C2CCC2)CC1 [Compound 222, 6-[2-(4-cyclobutylpiperazin-1-yl)-2-oxoethyl]-2-piperidin-1-yl-5,6,7,8-tetrahydro-1,6-naphthyridine]
O=C(CN1CCc2cc(-c3ncccn3)ccc2C1)N1CCN(C2CCC2)CC1 [Compound 131, 2-[2-(4-cyclobutylpiperazin-1-yl)-2-oxoethyl]-6-pyrimidin-2-yl-1,2,3,4-tetrahydroisoquinoline]
Cn1cc(-n2ncc3c2CCN(CC(=O)N2CCN(C4CCC4)CC2)C3)ccc1=O [Compound 263, 5-{5-[2-(4-cyclobutylpiperazin-1-yl)-2-oxoethyl]-4,5,6,7-tetrahydro-1H-pyrazolo[4,3-c]pyridin-1-yl}-1-methytpyridin-2(1H)-one]
CC(C)N1CCN(C(=O)CN2CCc3[nH]c(=O)ccc3C2)CC1 [Compound 135, 6-[2-(4-isopropylpiperazin-1-yl)-2-oxoethyl]-5,6,7,8-tetrahydro-1,6-naphthyridin-2(1H)-one]

same assay, conditions: assay of Example 7; "*" in Ki of Table II

Ki, < 1 µM:
CS(=O)(=O)c1cccc(-c2ccc3c(c2)CCN(CC(=O)N2CCN(C4CCCCC4)CC2)C3)c1 [Compound 395, 2-[2-(4-cyclohexylpiperazin-1-yl)-2-oxoethyl]-6-[3-(methylsulfonyl)phenyl]-1,2,3,4-tetrahydroisoquinoline]
CCCCc1ccc(-c2nc3c(s2)CN(CC(=O)N2CCN(C4CCC4)CC2)CC3)cc1 [Compound 309, 2-(4-butylphenyl)-5-[2-(4-cyclobutylpiperazin-1-yl)-2-oxoethyl]-4,5,6,7-tetrahydro[1,3]thiazolo [5,4-c]pyridine]
COc1cccc(OC)c1-c1nc2c(s1)CN(CC(=O)N1CCN(C3CCC3)CC1)CC2 [Compound 361, 5-[2-(4-cyclobutylpiperazin-1-yl)-2-oxoethyl]-2-(2,6-dimethoxyphenyl)-4,5,6,7-tetrahydro[1,3]thiazolo [5,4-c]pyridine]
COc1ccc(-c2nc3c(s2)CN(CC(=O)N2CCN(C4CCC4)CC2)CC3)cc1OC [Compound 329, 5-[2-(4-cyclobutylpiperazin-1-yl)-2-oxoethyl]-2-(3,4-dimethoxyphenyl)-4,5,6,7-tetrahydro[1,3]thiazolo [5,4-c]pyridine]
Cc1ccc(-n2ncc3c2CCN(CC(=O)N2CCN(C4CCC4)CC2)C3)nn1 [Compound 288, 5-[2-(4-cyclobutylpiperazin-1-yl)-2-oxoethyl]-1-(6-methylpyridazin-3-yl)-4,5,6,7-tetrahydro-1H-pyrazolo[4,3-c]pyridine]
O=C(CN1CCc2nc(-c3cccc(OC(F)(F)F)c3)sc2C1)N1CCN(C2CCC2)CC1 [Compound 319, 5-[2-(4-cyclobutylpiperazin-1-yl)-2-oxoethyl]-2-[3-(trifluoromethoxy)phenyl]-4,5,6,7-tetrahydro[1,3]thiazolo [5,4-c]pyridine]
COc1ccc(-c2ccc3c(c2)CCN(CC(=O)N2CCN(C4CCCC4)CC2)C3)cn1 [Compound 391, 2-[2-(4-cyclopentylpiperazin-1-yl)-2-oxoethyl]-6-(6-methoxypyridin-3-yl)-1,2,3,4-tetrahydroisoquinoline]
CC(C)N1CCN(C(=O)CN2CCc3cc(-c4ccc(S(C)(=O)=O)cc4)ccc3C2)CC1 [Compound 382, 2-[2-(4-isopropylpiperazin-1-yl)-2-oxoethyl]-6-[4-(methylsulfonyl)phenyl]-1,2,3,4-tetrahydroisoquinoline]
CCC(C)N1CCN(C(=O)CN2CCc3cc(-c4ccc(OC)nc4)ccc3C2)CC1 (stereo not drawn) [Compound 383, 2-[2-(4-sec-butylpiperazin-1-yl)-2-oxoethyl]-6-(6-methoxypyridin-3-yl)-1,2,3,4-tetrahydroisoquinoline]
O=C(CN1CCc2nc(-c3ccc4c(c3)OCO4)sc2C1)N1CCN(C2CCC2)CC1 [Compound 328, 2-(1,3-benzodioxol-5-yl)-5-[2-(4-cyclobutylpiperazin-1-yl)-2-oxoethyl]-4,5,6,7-tetrahydro[1,3]thiazolo [5,4-c]pyridine]
